Patent US20210330611A1, “THERAPY FOR NEUROLOGICAL DISEASES/DISORDERS” (priority 2020, published 2021)
Read-outs that look alike come from different tables or passages of the source.

Tests used:
[1] = test system: fibrin-induced microglia activation; experiment: Image-based assay of fibrin-induced microglia activation (HTS and dose response); type: cell-based, rat; conditions: for inhibition at 10 µM: Rattus norvegicus, Microglia, read-out: Fibrin % inhibition
[2] = test system: LPS-induced microglia activation; experiment: Image-based assay of LPS-induced microglia activation (HTS and dose response); type: cell-based, rat
[3] = test system: fibrin- and LPS-induced microglia activation; experiment: cells; type: cell-based, rat
primary rat microglia [4] = test system: primary rat microglia;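 on Fibrin % cell toxicity: share of dead cells sized under 150 µm2 at 10 µM in fibrin-stimulated microglia HTS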
primary rat microglia [5] = test system: primary rat microglia; remark: listed apart in the source;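 on Fibrin % cell toxicity: share of dead cells sized under 150 µm2 at 10 µM in fibrin-stimulated microglia HTS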
[6] = Rattus norvegicus, Microglia, read-out: LPS % inhibition
[7] = primary HTS, 10 μM, fibrin-stimulated primary microglia
[8] = Rattus norvegicus, Microglia, primary HTS, 10 μM, LPS-stimulated primary microglia; read-out: LPS % inhibition
[9] = Rattus norvegicus, Microglia, 48 h, read-out: LPS % inhibition
[10] = primary microglia HTS, fibrin stimulation, increased cell size (>800 μm^2) as marker of activation
[11] = Rattus norvegicus, Microglia, 48 h, primary microglia HTS, LPS stimulation; increased cell size (>800 μm^2) as marker of activation; read-out: LPS % inhibition
[12] = quadrant by fibrin and LPS inhibition in HTS of 1907 compounds
[13] = primary microglia HTS, fibrin stimulation, activation = cell size >800 μm2
[14] = primary microglia HTS, fibrin stimulation, cell size >800 μm2 as marker of activation
[15] = Rattus norvegicus, Microglia, 48 h; read-out: LPS % inhibition
[16] = classification by fibrin and LPS inhibition in HTS
[17] = primary microglia HTS, fibrin stimulation, compounds at 10 μM
[18] = Rattus norvegicus, Microglia, primary microglia HTS, LPS stimulation, compounds at 10 μM; read-out: LPS % inhibition
[19] = quadrant by fibrin and LPS inhibition, HTS at 10 μM
[20] = primary microglia HTS, 10 μM, fibrin-stimulated, cell size >800 μm^2 as marker of activation
[21] = Rattus norvegicus, Microglia, primary microglia HTS, 10 μM, LPS-stimulated, cell size >800 μm^2 as marker of activation; read-out: LPS % inhibition
[22] = HTS of 1907 compounds, quadrant by fibrin and LPS inhibition

| Compound | inhibition at 10 µM [1] | Quadrant (FIG. 5b) [3] | Fibrin % cell toxicity (primary rat microglia [4]; rat) | LPS % cell toxicity (primary rat microglia [5]; rat) | further results |
| --- | --- | --- | --- | --- | --- |
| CN(C)CCC=C1c2ccccc2CCc2ccccc21 [Amitriptyline] | 14% | Q4 | 1% | 1% | inhibition at 10 µM [2, 6]: 30% |
| O=P1(N(CCCl)CCCl)NCCCO1 (stereo not drawn) |  | Q4 |  |  | Fibrin % inhibition ([1]; 10 µM): −15%; LPS % inhibition ([2]; 10 µM): 12%; Fibrin % cell toxicity (primary rat microglia [4]): 0%; LPS % cell toxicity (primary rat microglia [5]): 0% |
| CCOP(=S)(OCC)Oc1nc(Cl)c(Cl)cc1Cl [Chlorpyrifos] |  |  | 1% | 0% | inhibition at 10 µM [1, 7]: -7%; inhibition at 10 µM [2, 8]: 1%; Quadrant (FIG. 5b) ([3]; primary HTS, 10 μM): Q4 |
| O=C(O)/C=C/C(=O)O [Fumaric Acid] | 19% | Q4 | 1% | 0% | inhibition at 10 µM [2, 9]: 17% |
| Nc1nc(Cl)nc2c1ncn2[C@H]1C[C@H](O)[C@@H](CO)O1 [Cladribine] |  |  | 1% | 0% | inhibition at 10 µM [1, 7]: -23%; inhibition at 10 µM [2, 8]: 6%; Quadrant (FIG. 5b) ([3]; primary HTS, 10 μM): Q4 |
| Cc1c(O)cccc1C(=O)N[C@@H](CSc1ccccc1)[C@H](O)CN1C[C@H]2CCCC[C@H]2C[C@H]1C(=O)NC(C)(C)C [Nelfinavir] |  |  | 1% | 0% | inhibition at 10 µM [1, 10]: 16%; inhibition at 10 µM [2, 11]: 13%; Quadrant (FIG. 5b) [3, 12]: Q4 |
| Oc1ccc(O)cc1 [Hydroquinone] | 14% | Q4 | 1% | 0% | inhibition at 10 µM [2, 9]: 12% |
| NC(CO)(CO)CO [Tris] |  | Q4 |  |  | Fibrin % inhibition ([1]; 10 µM): −18%; LPS % inhibition ([2]; 10 µM): 41%; Fibrin % cell toxicity (primary rat microglia [4]): 1%; LPS % cell toxicity (primary rat microglia [5]): 1% |
| CC(=O)Nc1ccc(S(=O)(=O)c2ccc(NC(C)=O)cc2)cc1 [Acedapsone] | 0% | Q4 | 0% | 0% | inhibition at 10 µM [2, 6]: 4% |
| NNCCc1ccccc1 [Phenelzine] | 2% | Q4 | 1% | 0% | inhibition at 10 µM [2, 9]: -4% |
| CC(C)(O)c1ccccc1CC[C@@H](SCC1(CC(=O)O)CC1)c1cccc(/C=C/c2ccc3ccc(Cl)cc3n2)c1 [Montelukast Sodium] |  | Q4 | 1% | 0% | Fibrin % inhibition [1]: 21%; LPS % inhibition [2]: 16% |
| N[C@@H](CC(=O)O)C(=O)O [L-aspartic Acid, Aspartic Acid (I)] |  |  |  |  | Fibrin % inhibition [1, 13]: 5%; LPS % inhibition ([2]; primary microglia HTS, LPS stimulation, activation = cell size >800 μm2): 13%; Quadrant (FIG. 5b) [3, 12]: Q4; Fibrin % cell toxicity (primary rat microglia [4]): 1%; LPS % cell toxicity (primary rat microglia [5]): 1% |
| CC(=O)CCCCn1c(=O)c2c(ncn2C)n(C)c1=O [Pentoxifylline] |  |  | 0% | 0% | inhibition at 10 µM [1, 14]: 4%; inhibition at 10 µM [2, 15]: 6%; Quadrant (FIG. 5b) [3, 16]: Q4 |
| CC(C)(S)[C@@H](N)C(=O)O [Penicillamine] |  |  | 0% | 0% | inhibition at 10 µM [1, 14]: -15%; inhibition at 10 µM [2, 15]: 16%; Quadrant (FIG. 5b) [3, 16]: Q4 |
| O=C(O)c1cc(=O)[nH]c(=O)[nH]1 [Orotic Acid] |  |  | 0% | 0% | inhibition at 10 µM [1, 10]: -5%; inhibition at 10 µM [2, 11]: 16%; Quadrant (FIG. 5b) [3, 12]: Q4 |
| CCOC(=O)c1ccc(N)cc1 [Benzocaine] |  |  | 1% | 0% | inhibition at 10 µM [1, 17]: -24%; inhibition at 10 µM [2, 18]: 7%; Quadrant (FIG. 5b) [3, 19]: Q4 |
| Nc1c2c(nc3ccccc13)CCCC2 [Tacrine] | -2% | Q4 | 1% | 0% | inhibition at 10 µM [2, 6]: 5% |

| Compound | inhibition at 10 µM [1] | Quadrant (FIG. 5b) [3] | Fibrin % cell toxicity (primary rat microglia [4]; rat) | LPS % cell toxicity (primary rat microglia [5]; rat) | further results |
| --- | --- | --- | --- | --- | --- |
| COc1cccc2c1C(=O)c1c(O)c3c(c(O)c1C2=O)C[C@@](O)(C(C)=O)C[C@@H]3O[C@H]1C[C@H](N)[C@H](O)[C@H](C)O1 [Daunorubicin] |  |  | 77% | 57% | inhibition at 10 µM [1, 10]: 116%; inhibition at 10 µM [2, 11]: 114%; Quadrant (FIG. 5b) [3, 12]: Q2 |
| c1ccc([C@H]2CN3CCSC3=N2)cc1 [Levamisole] | -15% | Q4 | 0% | 0% | inhibition at 10 µM [2, 9]: 12% |
| Cc1ccc(C(C)C)c(O)c1 [Thymol] |  |  | 1% | 0% | inhibition at 10 µM [1, 20]: 15%; inhibition at 10 µM [2, 21]: 20%; Quadrant (FIG. 5b) [3, 22]: Q4 |
| CCCC(CCC)C(=O)O [Valproic Acid] |  |  | 0% | 0% | inhibition at 10 µM [1, 20]: -28%; inhibition at 10 µM [2, 21]: 27%; Quadrant (FIG. 5b) [3, 22]: Q4 |
| NC[C@@H]1CC[C@@H](N)[C@@H](O[C@H]2[C@H](O)[C@@H](O[C@H]3O[C@H](CO)[C@@H](O)[C@H](N)[C@H]3O)[C@H](N)C[C@@H]2N)O1 [Dibekacin] | 10% | Q4 | 1% | 1% | inhibition at 10 µM [2, 6]: 20% |
| NCCCNCCSP(=O)(O)O [Amifostine] |  |  | 0% | 0% | inhibition at 10 µM [1, 17]: -38%; inhibition at 10 µM [2, 18]: 15%; Quadrant (FIG. 5b) [3, 19]: Q4 |
| Cc1ncc([N+](=O)[O-])n1C [Dimetridazole] |  |  | 1% | 1% | inhibition at 10 µM [1, 17]: -16%; inhibition at 10 µM [2, 18]: 15%; Quadrant (FIG. 5b) ([3]; classification by fibrin and LPS inhibition, HTS at 10 μM): Q4 |
| COC(=O)C1=C(C)NC(C)=C(C(=O)OCC(C)C)C1c1ccccc1[N+](=O)[O-] (stereo not drawn) [Nisoldipine] |  |  | 1% | 1% | inhibition at 10 µM [1, 10]: 6%; inhibition at 10 µM [2, 11]: 25%; Quadrant (FIG. 5b) [3, 12]: Q4 |
| CN(C)c1ccc2nc3ccc(=[N+](C)C)cc-3sc2c1 [Methylene Blue] | 25% | Q1 | 1% | 1% | inhibition at 10 µM [2, 9]: 73% |
| O=S(=O)(O)NC1CCCCC1 [Cyclamic Acid] | 4% | Q4 | 0% | 0% | inhibition at 10 µM [2, 6]: 13% |
| O=c1[nH]c(=O)n(Cl)c(=O)n1Cl [Troclosene Potassium] | -8% | Q4 | 1% | 0% | inhibition at 10 µM [2, 6]: 1% |
| Nc1ncn([C@@H]2O[C@H](CO)[C@@H](O)[C@H]2O)c(=O)n1 [5-azacytidine, Azacitidine] |  |  |  |  | Fibrin % inhibition [1, 17]: 9%; LPS % inhibition ([2]; primary microglia HTS, LPS stimulation, compounds at 10 μM): −7%; Quadrant (FIG. 5b) [3, 19]: Q4; Fibrin % cell toxicity (primary rat microglia [4]): 1%; LPS % cell toxicity (primary rat microglia [5]): 0% |
| CC(=O)O[C@H]1C(=O)[C@@]2(C)[C@H]([C@H](OC(=O)c3ccccc3)[C@]3(O)C[C@H](OC(=O)[C@H](O)[C@@H](NC(=O)c4ccccc4)c4ccccc4)C(C)=C1C3(C)C)[C@]1(OC(C)=O)CO[C@@H]1C[C@@H]2O [Taxol, Paclitaxel] |  |  |  |  | Fibrin % inhibition [1, 20]: 45%; LPS % inhibition ([2]; primary microglia HTS, 10 μM, LPS-stimulated, cell size >800 μm^2 as marker of activation): 19%; Quadrant (FIG. 5b) [3, 22]: Q4; Fibrin % cell toxicity (primary rat microglia [4]): 1%; LPS % cell toxicity (primary rat microglia [5]): 1% |
| Clc1ccc(COC(Cn2ccnc2)c2ccc(Cl)cc2Cl)cc1 (stereo not drawn) [Econazole] | 0% | Q4 | 0% | 0% | inhibition at 10 µM [2, 6]: 18% |
| CC(C)(O)c1ccccc1CC[C@@H](SCC1(CC(=O)O)CC1)c1cccc(/C=C/c2ccc3ccc(Cl)cc3n2)c1 [Montelukast] |  | Q4 | 1% | 0% | Fibrin % inhibition [1]: −5%; inhibition at 10 µM [2, 9]: 12% |
| CCC1=C(C)CN(C(=O)NCCc2ccc(S(=O)(=O)NC(=O)N[C@H]3CC[C@H](C)CC3)cc2)C1=O [Glimepiride] |  |  | 1% | 0% | inhibition at 10 µM [1, 13]: 0%; inhibition at 10 µM ([2]; Rattus norvegicus, Microglia, 48 h, primary microglia HTS, LPS stimulation, activation = cell size >800 μm2; read-out: LPS % inhibition): 21%; Quadrant (FIG. 5b) [3, 12]: Q4 |
